Source: patent US20060281695A1, “Control of parasites in animals by N-[(phenyloxy)phenyl]-1,1,1-trifluoromethanesulfonamide and N-[(phenylsulfanyl)phenyl]-1,1,1-trifluoromethanesulfonamide derivatives” (priority 2005, published 2006)

Assays:
[1] = test system: cat flea (Ctenocephalides felis); assay: Ctenocephalides felis adulticide assay: single dose screen on treated glass surface (% mortality at 1.26 μg/cm^2, 24 hours); assay type: in vivo; conditions: for Ctenocephalides felis Mortality (%) 24 h: in vivo; for mortality at 1.26 µg/cm2, 1.26 µg/cm2: Ctenocephalides felis, 24 h, read-out: Ctenocephalides felis Mortality (%) 24 h
Description: The LC50 value is the concentration, expressed as μg/cm^2, that was required to kill 50% of the sample of cat fleas on contact with the tested compound. Certain tests are also reported as the percent of a sample of cat fleas that were killed at a concentration of 1.26 μg/cm^2 (“% mortality”), for the compounds tested in this way.
b) Ctenocephalides felis Adulticide Assay: C.felis single dose screen
Mortality of fleas is the primary endpoint in the assay. […] The concentration chosen (1.26 μg/cm^2) is higher than that known to kill 90% of cat fleas (LC90) using the reference compound, permethrin.
The test species employed was the cat flea (Ctenocephalides felis). The strain used was obtained from external suppliers as pupae and held in the laboratory under testing conditions until the adults had emerged. Fifteen (15) fleas were used in a minimum of four replicates against a single concentration level (approximately 60 fleas). The insects were selected to be in the adult life stage, aged between 3 and 7 days post emergence.
The compounds to be tested were supplied as solids and were prepared in acetone as described below prior to testing. Samples were stored in a refrigerator (5±1° C.) unless otherwise specified.
During the mortality testing, the temperature was maintained at 25±1° C. Humidity was maintained at 75±5%. The base (area=159 mm^2) of a 100 mL glass Erlenmeyer (conical) flask provided the treatment surface. Flasks were pre-treated with Coatasil™ glass treatment to maximise bio-availability of test compounds by preventing them from binding to glass the surface. The base of the 100 mL Erlenmeyer flask was treated with 0.5 mL of test sample in acetone and gently swirled. This volume was sufficient to cover the base of the flask. Flasks were left to dry for 24 hours before flea exposure.
Adult cat fleas were placed into a sorting chamber, which allowed fleas to jump into the Erlenmeyer flasks. Fifteen (15) adult cat fleas were collected in each flask. The top of the flasks were then covered in Parafilm™ and small holes were made to allow gas exchange. A 0.5 mL volume of acetone as a solvent control was applied to the base of an Erlenmeyer flask and the testing proceeded in the same manner described above. […] Pooled 24 hour mortality data were converted to percentages and are summarized by Table 4, below.
(§1) In Table 7, provided below, are listed the Haemonchus contortus LD99 values (measured in micrograms/mL), the Ctenocephalides felis rapid screening values (measured in % mortality), the Ctenocephalides felis LC50 values (measured in micrograms/cm^2) and the Rhipicephalus sanguineus rapid screening values (measured in % mortality) for selected compounds in accordance with the present invention.

[2] = test system: Haemonchus contortus; assay: Haemonchus contortus larvacidal (larval development) assay, LD99; assay type: in vitro
Description: The LD99 value is the dose, expressed as […], that was required to kill 99% of a sample of Haemonchus contortus.
a) Haemonchus Contortus Larvacidal Assay:
The effect of compounds on larval development was determined in the assay described by Gill et al. [International Journal of Parasitology 25:463-470 (1995)]. Briefly, in this assay, nematode eggs are applied to the surface of an agar matrix containing the test compound and then allowed to develop through to the L3, infective stage (6 days). The wells for each dilution of every compound (from highest to lowest concentration) are inspected to determine the well number corresponding to the lowest concentration at which development is inhibited in 99% of the nematode larvae present (LD99). Because well numbers correspond to a two-fold serial dilution of each compound, a titre (dilution factor) is generated as 2^n−1, where n is the well number. By dividing the highest concentration tested by the titre an LD99 value can be obtained, representing the concentration required to inhibit development in 99% of the nematode larvae present. The compounds supplied as solid and viscous liquids are dissolved in DMSO. Twelve serial one-half dilutions in DMSO solution are prepared from the stock solution, each of which is then diluted 1/5 with water. Aliquots (10 μl) of each dilution are transferred to the bioassay plates to give a final concentration range of 0.024 to 50 μg/ml.
as §1

Compound: CC(C)N(c1ccc(Cl)cc1Oc1ccccc1F)S(=O)(=O)C(F)(F)F [Compound 87]
- Ctenocephalides felis Mortality (%) 24 h [1]: 24%

Compound: O=S(=O)(Nc1ccc(Oc2ccc(Cl)cc2Cl)c(F)c1)C(F)(F)F [p8]
- Ctenocephalides felis Mortality (%) 24 h [1]: 4%

Compound: CCOCN(c1ccc(Cl)cc1Oc1ccccc1F)S(=O)(=O)C(F)(F)F [Compound 80]
- Ctenocephalides felis Mortality (%) 24 h [1]: 9%

Compound: CC(C)(C)C(=O)OCN(c1ccc(Oc2ccccc2)cc1)S(=O)(=O)C(F)(F)F [p5]
- Ctenocephalides felis Mortality (%) 24 h [1]: 54%

Compound: COCN(c1ccc(Oc2ccccc2)cc1)S(=O)(=O)C(F)(F)F [p4]
- Ctenocephalides felis Mortality (%) 24 h [1]: 49%

Compound: CCOCN(c1cccc(Oc2ccc(Cl)cc2Cl)c1)S(=O)(=O)C(F)(F)F [Compound m7, N-Ethoxymethyl-N-[3-(2,4-dichlorophenoxy)phenyl]-1,1,1-trifluoromethanesulfonamide]
- mortality at 1.26 µg/cm2, 1.26 µg/cm2 [1]: 5%

Compound: Cc1cccc(Oc2cc(Cl)ccc2NS(=O)(=O)C(F)(F)F)c1C [Compound 27]
- Haemonchus contortus LD99 [2]: 14 µg/mL
- Ctenocephalides felis Mortality (%) 24 h [1]: 59%

Compound: O=S(=O)(Nc1ccc(Oc2ccc(Cl)cc2Cl)c(Cl)c1)C(F)(F)F [Compound p7, N-[3-Chloro-4-(2,4-dichlorophenoxy)phenyl]-1,1,1-trifluoromethanesulfonamide]
- mortality at 1.26 µg/cm2, 1.26 µg/cm2 [1]: 22%

Compound: O=S(=O)(Nc1cc(C(F)(F)F)ccc1Oc1ccc(Cl)cc1Cl)C(F)(F)F [Compound 10]
- Haemonchus contortus LD99 [2]: 1.5 µg/mL
- Ctenocephalides felis Mortality (%) 24 h [1]: 38%

Compound: O=S(=O)(Nc1cc(C(F)(F)F)ccc1Sc1ccc(Br)cc1)C(F)(F)F [Compound 67]
- Ctenocephalides felis Mortality (%) 24 h [1]: 5%

Compound: O=S(=O)(Nc1cccc(Oc2ccc(Cl)cc2Cl)c1)C(F)(F)F [Compound m6, N-[3-(2,4-dichlorophenoxy)phenyl]-1,1,1-trifuoromethanesulfonamide]
- Ctenocephalides felis Mortality (%) 24 h [1]: 34%

Compound: Cc1ccccc1Oc1cc(C#N)ccc1NS(=O)(=O)C(F)(F)F [Compound 54]
- Ctenocephalides felis Mortality (%) 24 h [1]: 5%

Compound: O=S(=O)(Nc1cc(C(F)(F)F)ccc1Sc1ccc(F)cc1)C(F)(F)F [Compound 65]
- Ctenocephalides felis Mortality (%) 24 h [1]: 21%

Compound: CCCC(=O)OCN(c1ccc(Cl)cc1Oc1ccccc1F)S(=O)(=O)C(F)(F)F [Compound 89]
- Ctenocephalides felis Mortality (%) 24 h [1]: 6%

Compound: O=S(=O)(Nc1ccc(Cl)cc1Nc1ccc(Cl)cc1)C(F)(F)F [Compound 91, N-[4-Chloro-2-(4-chlorophenylamino)-phenyl]-1,1,1-trifluoromethanesulphonamide]
- mortality at 1.26 µg/cm2, 1.26 µg/cm2 [1]: 13%

Compound: N#Cc1ccc(NS(=O)(=O)C(F)(F)F)c(Oc2ccc(Cl)cc2)c1 [Compound 51]
- Ctenocephalides felis Mortality (%) 24 h [1]: 10%

Compound: O=S(=O)(Nc1cc(Cl)c(Cl)cc1Oc1ccc(Cl)cc1Cl)C(F)(F)F [Compound 13]
- Haemonchus contortus LD99 [2]: 1.8 µg/mL
- Ctenocephalides felis Mortality (%) 24 h [1]: 48%

Compound: CC(C)(C)C(=O)OCN(c1ccc(Cl)cc1Oc1ccccc1F)S(=O)(=O)C(F)(F)F [Compound 88]
- Ctenocephalides felis Mortality (%) 24 h [1]: 73%

Compound: N#Cc1ccc(NS(=O)(=O)C(F)(F)F)c(Oc2ccc(Cl)cc2Cl)c1 [Compound 52]
- Ctenocephalides felis Mortality (%) 24 h [1]: 23%

Compound: N#Cc1ccc(NS(=O)(=O)C(F)(F)F)c(Oc2cccc(C(F)(F)F)c2)c1 [Compound 60]
- Ctenocephalides felis Mortality (%) 24 h [1]: 5%

Compound: CC(C)(C)C(=O)OCN(c1cccc(Oc2ccccc2)c1)S(=O)(=O)C(F)(F)F [m5]
- Ctenocephalides felis Mortality (%) 24 h [1]: 72%

Compound: CN(c1cccc(Oc2ccccc2)c1)S(=O)(=O)C(F)(F)F [m2]
- Ctenocephalides felis Mortality (%) 24 h [1]: 88%

Compound: CCN(c1ccc(Cl)cc1Oc1ccccc1F)S(=O)(=O)C(F)(F)F [Compound 78]
- Ctenocephalides felis Mortality (%) 24 h [1]: 80%

Compound: N#Cc1ccc(NS(=O)(=O)C(F)(F)F)c(Oc2ccc(F)c(F)c2)c1 [Compound 57]
- Ctenocephalides felis Mortality (%) 24 h [1]: 2%

Compound: O=S(=O)(Nc1ccc(Oc2ccccc2)cc1)C(F)(F)F [p1]
- Ctenocephalides felis Mortality (%) 24 h [1]: 84%

Compound: O=S(=O)(Nc1ccc(Cl)cc1Oc1ccccc1)C(F)(F)F [Compound 40]
- Ctenocephalides felis Mortality (%) 24 h [1]: 39%

Compound: N#Cc1ccc(Oc2cc(Cl)ccc2NS(=O)(=O)C(F)(F)F)cc1 [Compound 56]
- Ctenocephalides felis Mortality (%) 24 h [1]: 6%

Compound: O=S(=O)(Nc1ccc(Cl)cc1Oc1cc(Cl)ccc1Cl)C(F)(F)F [Compound 69]
- Ctenocephalides felis Mortality (%) 24 h [1]: 58%

Compound: CC(C)(C)c1ccccc1Oc1cc(Cl)ccc1NS(=O)(=O)C(F)(F)F [Compound 42]
- Ctenocephalides felis Mortality (%) 24 h [1]: 88%

Compound: O=S(=O)(Nc1ccc(Cl)cc1[S+]([O-])c1ccc(Cl)cc1)C(F)(F)F (stereo not drawn) [Compound 23, N-[4-chloro-2-(4-(chlorophenyl)sulfinyl)phenyl]-1,1,1-trifluoromethanesulfonamide]
- Ctenocephalides felis Mortality (%) 24 h [1]: 3%

Compound: CN(c1ccc(Oc2ccccc2)cc1)S(=O)(=O)C(F)(F)F [p2]
- Ctenocephalides felis Mortality (%) 24 h [1]: 64%

Compound: COc1cccc(Oc2cc(Cl)ccc2NS(=O)(=O)C(F)(F)F)c1 [Compound 58]
- Ctenocephalides felis Mortality (%) 24 h [1]: 87%

Compound: O=S(=O)(Nc1ccc(Oc2ccc(Cl)cc2Cl)cc1C(F)(F)F)C(F)(F)F [p6]
- Ctenocephalides felis Mortality (%) 24 h [1]: 28%

Compound: COCN(c1ccc(Cl)cc1Oc1ccccc1F)S(=O)(=O)C(F)(F)F [Compound 79]
- Ctenocephalides felis Mortality (%) 24 h [1]: 60%

Compound: O=S(=O)(Nc1ccc(Oc2ccc(Cl)cc2Cl)c(C(F)(F)F)c1)C(F)(F)F [p9]
- Ctenocephalides felis Mortality (%) 24 h [1]: 44%

Compound: CC(C)c1ccccc1Oc1cc(Cl)ccc1NS(=O)(=O)C(F)(F)F [Compound 39]
- Ctenocephalides felis Mortality (%) 24 h [1]: 75%

Compound: O=S(=O)(Nc1ccc(Cl)cc1Sc1ccccc1Cl)C(F)(F)F [Compound 62]
- Ctenocephalides felis Mortality (%) 24 h [1]: 25%

Compound: CCOCN(c1ccc(Oc2ccccc2)cc1)S(=O)(=O)C(F)(F)F [p3]
- Ctenocephalides felis Mortality (%) 24 h [1]: 72%

Compound: O=S(=O)(Nc1cc(C(F)(F)F)ccc1Sc1ccccc1Cl)C(F)(F)F [Compound 64]
- Ctenocephalides felis Mortality (%) 24 h [1]: 14%

Compound: O=S(=O)(Nc1ccc(Cl)cc1Oc1ccc(Oc2ccccc2)cc1)C(F)(F)F [Compound 47]
- Ctenocephalides felis Mortality (%) 24 h [1]: 36%

Compound: CCN(c1ccc(Cl)cc1Oc1ccc(Cl)cc1Cl)S(=O)(=O)C(F)(F)F [Compound 76]
- Ctenocephalides felis Mortality (%) 24 h [1]: 3%

Compound: O=S(=O)(N(Cc1ccccc1)c1ccc(Cl)cc1Oc1ccccc1F)C(F)(F)F [Compound 81]
- Ctenocephalides felis Mortality (%) 24 h [1]: 1%

Compound: N#Cc1ccc(NS(=O)(=O)C(F)(F)F)c(Oc2ccccc2F)c1 [Compound 53]
- Ctenocephalides felis Mortality (%) 24 h [1]: 9%

Compound: O=S(=O)(N(Cc1ccccc1)c1ccc(Cl)cc1Oc1ccc(Cl)cc1Cl)C(F)(F)F [Compound 92, N-benzyl-N-[4-chloro-2-(2,4-dichlorophenoxy)phenyl]-1,1,1-trifluoromethanesulfonamide]
- mortality at 1.26 µg/cm2, 1.26 µg/cm2 [1]: 57%

Compound: CC(C)N(c1ccc(Cl)cc1Oc1ccc(Cl)cc1Cl)S(=O)(=O)C(F)(F)F [Compound 86]
- Ctenocephalides felis Mortality (%) 24 h [1]: 66%

Compound: O=S(=O)(Nc1cc(C(F)(F)F)ccc1Sc1ccccc1)C(F)(F)F [Compound 63]
- Ctenocephalides felis Mortality (%) 24 h [1]: 10%

Compound: CN(c1ccc(Cl)cc1Oc1ccccc1F)S(=O)(=O)C(F)(F)F [Compound 77]
- Ctenocephalides felis Mortality (%) 24 h [1]: 20%

Compound: N#Cc1cccc(Oc2cc(Cl)ccc2NS(=O)(=O)C(F)(F)F)c1 [Compound 50]
- Ctenocephalides felis Mortality (%) 24 h [1]: 14%

Compound: O=S(=O)(Nc1ccc(Cl)cc1Oc1ccccc1-c1ccccc1)C(F)(F)F [Compound 74, N-[2-(Biphenyl-2-yloxy)-4-chlorophenyl]-1,1,1-trifluoromethanesulfonamide]
- mortality at 1.26 µg/cm2, 1.26 µg/cm2 [1]: 81%

Compound: O=S(=O)(Nc1cc(C(F)(F)F)ccc1Sc1ccccc1F)C(F)(F)F [Compound 66]
- Ctenocephalides felis Mortality (%) 24 h [1]: 20%

Compound: COc1ccc(Oc2cc(Cl)ccc2NS(=O)(=O)C(F)(F)F)cc1 [Compound 49]
- Ctenocephalides felis Mortality (%) 24 h [1]: 24%
